Key:
[1] = Cytotoxicity against HEK cells assessed as cell viability at 0.73 to 1500 ug/mL after 48 hrs by MTT assay; assay type: cell-based; conditions: human, hek293, 48 h
Pseudomonas aeruginosa [2] = assay: Antibacterial activity against clinical isolate resistant Pseudomonas aeruginosa after 16 hrs by microbroth dilution method; assay type: functional, organism-based
Pseudomonas aeruginosa [3] = assay: Antibacterial activity against Pseudomonas aeruginosa MTCC 1688 after 16 hrs by microbroth dilution method; assay type: functional, organism-based
Shigella flexneri = assay: Antibacterial activity against Shigella flexneri MTCC 1457 after 16 hrs by microbroth dilution method; assay type: functional, organism-based
Proteus vulgaris = assay: Antibacterial activity against clinical isolate resistant Proteus vulgaris after 16 hrs by microbroth dilution method; assay type: functional, organism-based
Escherichia coli = assay: Antibacterial activity against clinical isolate resistant Escherichia coli after 16 hrs by microbroth dilution method; assay type: functional, organism-based
Raoultella planticola = assay: Antibacterial activity against Klebsiella planticola MTCC 2272 after 16 hrs by microbroth dilution method; assay type: functional, organism-based

Sequence	Activity [1]	MIC (Pseudomonas aeruginosa [2]) [µg/mL]	MIC (Pseudomonas aeruginosa [3]) [µg/mL]	MIC (Shigella flexneri) [µg/mL]	MIC (Proteus vulgaris) [µg/mL]	MIC (Escherichia coli) [µg/mL]	MIC (Raoultella planticola) [µg/mL]
GENTAMICIN [listing 1 of 2 here]	Active						
GENTAMICIN [listing 2 of 2 here]		5.5	1.46	1.46	187	11	1.46

Source: ChEMBL document CHEMBL1140197, “Synthesis, characterization and antibacterial activity of cobalt(III) complexes with pyridine-amide ligands” (Eur J Med Chem, 2008)
